{"source": "patent US20250195508A1", "about": "“COMPOUNDS AND COMPOSITIONS FOR ANITMALARIAL THERAPEUTIC AND PROPHYLACTIC USE” (UNIVERSITY OF CENTRAL FLORIDA RESEARCH FOUNDATION, INC., priority 2022, published 2025)", "key": {"P. falciparum Dd2 [1]": {"system": "P. falciparum Dd2", "assay": "Rate of killing assay", "format": "cell-based", "conditions": "10×EC50, 12-hour exposure then wash off", "experimental": "Asynchronous P. falciparum Dd2 cultures were plated at 1% parasitemia, 4% hematocrit into a 24-well plate, incubated at 37° C. in 5% CO2. Wells were treated with 10×EC50 of compound for 12, 24, or 48 hours before the compound was removed. Every 24 hours thereafter for 4 days total, culture samples were washed in 0.5% BSA and stained with 1×SYBR Green I and 60 μM MitoTracker Deep Red FM for 20 minutes at 37° C. After another wash in 0.5% BSA, samples were resuspended in PBS and analyzed via flow cytometry with a CytoFLEX S™, with 100,000 events recorded per sample. For gating, the following controls were used: uninfected RBCs, untreated culture, DHA-treated culture, and untreated culture without MitoTracker stain. Viable parasite percentage was determined by finding the fraction of SYBR Green/MitoTracker double positive cells from the total events. Analysis was performed with FlowJo software Version 10.\nAsynchronous cultures of P. falciparum Dd2 parasites were treated with 10×EC50 of the indicated compound for 12 hours prior to compound wash off. Flow cytometry with SYBR Green I (nuclear dye) and Mitotracker Deep Red FM (mitochondria staining) was done after compound wash-off every 24 hours after for […] (100,000 events/sample) to track parasitemia (data from 3 biological replicates±SEM)."}, "P. berghei ANKA": {"system": "P. berghei ANKA", "assay": "Treatment of established P. berghei ANKA luciferase infection in mice, IVIS imaging", "format": "in vivo", "conditions": "50 mg/kg p.o. once daily for 4 days from 72 hours post-infection; imaging day 7", "experimental": "Mice infected with P. berghei ANKA (10^3 iRBC) expressing luciferase were treated with 50 mg/kg TL5-135 or chloroquine orally once daily 72 hours post-infection for 4 days. Imaging was done 7 days after infection following a 150 mg/kg D-luciferin injection with an IVIS."}, "P. falciparum Dd2 [2]": {"system": "P. falciparum Dd2", "assay": "72 h SYBR Green I assay (Dd2 Proliferation Assay)", "format": "cell-based", "conditions": "Plasmodium falciparum, DD2; SYBR Green I assay; Table 4; read-out: PfDd2 EC50 (nM) ± SD", "experimental": "Several analogs were synthesized based on the structure of TL5-135 for further study. […] For the data in Table 1, compounds were subjected to in vitro biochemical kinase assays done using recombinant human ephrin type-A receptor 2 (EPHA2) (expressed in insect cells) in a Z′-LYTE® FRET-based kinase assay. P. falciparum Dd2 EC50 was determined using the standard 72 hour SYBR Green I assay (Dd2 Proliferation Assay) as known in the art. […] The structures of compoundsTL5-134, TL5-139, and TL5-145 are shown below.\nIn vitro biochemical kinase assays were done using recombinant human EPHA2 (expressed in insect cells) in a Z′-LYTE® FRET-based kinase assay. P. falciparum Dd2 EC50 was determined using the standard 72 h SYBR Green I assay.\nAsynchronous blood stage P. falciparum Dd2 cultures were plated at 1% parasitemia and 1% hematocrit in a 96-well plate and incubated with serial dilutions of compound for 72 hours at 37° C. in 5% CO2. DMSO concentrations were kept at a sub-lethal percentage (<0.2%). Five micromolar chloroquine was used as a negative parasite growth control. Plates were then frozen at −80° C. and thawed, and 100 μL SYBR Green I-containing lysis buffer (20 mM Tris-HCl, 5 mM EDTA, 0.8% Triton X-100, 0.08% saponin, and 0.0001% SYBR Green I) was added to the wells. After incubation for 45 minutes at room temperature protected from light, fluorescence emission was read with a multimode microplate reader, at 485 nm excitation and 530 nm emission. Results were normalized using untreated and chloroquine-treated controls, and EC50 was determined with CDD Vault.\nTo establish the utility of kinase inhibitor compounds synthesized in the Gray laboratory as a source of novel antimalarial activities, the libraries (containing 1,100 compounds) were screened using the well-established SYBR Green I-based fluorescence assay as known in the art. This screen yielded 34 compounds with EC50<500 nM in the CQ^R Dd2 strain. These hits were subjected to counter-screening against human HepG2 cells using CellTiter 96® AQueous (Promega™) MTS-based cell proliferation assay to identify asexual and liver stage antiplasmodial hits.\nP. falciparum Dd2 EC50 was determined using SYBR Green I assay. For the selectivity index ([…]) cytotoxicity was determined using CellTiter 96® AQueous MTS. The liver stage assay was performed using P. berghei luciferase expressing parasites. All assays were performed with technical quadruplicates and 3 biological replicates. Assays have a Z′ factor >0.7."}}, "note": "Entries after “also recorded” stand apart in the source; their conditions may differ.", "data": [{"smiles": "CCN1CCN(Cc2ccc(NC(=O)c3cc(Cl)cc(NC(=O)c4cncc(-c5cccs5)c4)c3)cc2C(F)(F)F)CC1", "note": "[TL5-135]", "values": [{"measurement": "Killing profile", "setting": "P. falciparum Dd2 [1]", "value": "pronounced irreversible killing"}, {"measurement": "Killing profile", "setting": "P. falciparum Dd2 [1]; listed as TL-135", "value": "exhibited a killing effect"}, {"measurement": "Effect on established P. berghei infection", "setting": "P. berghei ANKA", "value": "eliminates established P. berghei ANKA infection; also recorded: eliminate established Plasmodium. berghei infections in mice"}, {"measurement": "EC50", "setting": "P. falciparum Dd2 [2]", "value": "80 ± 8", "unit": "nM"}]}]}
